Source: ChEMBL document CHEMBL3046306, “Synthesis of new compounds derived from metronidazole and amino acids and their esters as antiparasitic agents” (Med Chem Res, 2012)

Tests used:
Giardia intestinalis = assay: Antiparasitic activity against Giardia intestinalis WB strain ATCC 30957 using trypan blue staining by hemocytometer; assay type: functional, organism-based; details: Giardia duodenalis
[1] = Cytotoxicity against Homo sapiens (human) Hep2 cells assessed as concentration at which cell growth as in negative control after 48 hr by hemocytometer; assay type: cell-based; details: HEp-2 cells, read-out: Activity
Entamoeba histolytica = assay: Antiparasitic activity against Entamoeba histolytica HK-9 strain ATCC 30015 using trypan blue staining by hemocytometer; assay type: functional, organism-based
[2] = Cytotoxicity against Chlorocebus aethiops (African green monkey) Vero cells assessed as concentration at which cell growth as in negative control after 48 hr by hemocytometer; assay type: cell-based; details: chlorocebus sabaeus, read-out: Activity

| SMILES | IC50 (Giardia intestinalis) | MNTC at 48 h [1] | IC50 (Entamoeba histolytica) | MNTC at 48 h [2] |
| --- | --- | --- | --- | --- |
| COC(=O)[C@H](CC(=O)O)NC(=O)Cn1c([N+](=O)[O-])cnc1C | 2.26 µM | 304 µM | 2.21 µM | 314 µM |
| COC(=O)[C@H](Cc1ccc(O)cc1)NC(=O)Cn1c([N+](=O)[O-])cnc1C | 17.8 µM | – | 18.3 µM | – |
| COC(=O)[C@H](Cc1c[nH]c2ccccc12)NC(=O)Cn1c([N+](=O)[O-])cnc1C | 16.6 µM | – | 8.29 µM | – |
| COC(=O)[C@H](Cc1cnc[nH]1)NC(=O)Cn1c([N+](=O)[O-])cnc1C | 8.93 µM | – | 8.91 µM | – |
| COC(=O)[C@@H]1CCCN1C(=O)Cn1c([N+](=O)[O-])cnc1C | 2.7 µM | 169 µM | 2.54 µM | 204 µM |
| CCOC(=O)C(CCCCNC(=O)Cn1c([N+](=O)[O-])cnc1C)NC(=O)Cn1c([N+](=O)[O-])cnc1C (configuration not stated) | 3.84 µM | – | 3.95 µM | – |
| Cc1ncc([N+](=O)[O-])n1CC(=O)N[C@@H](Cc1ccccc1)C(=O)O | 22.2 µM | – | 23.4 µM | – |
| Cc1ncc([N+](=O)[O-])n1CC(=O)N[C@@H](Cc1c[nH]c2ccccc12)C(=O)O | 18 µM | – | 17.2 µM | – |
| Cc1ncc([N+](=O)[O-])n1CC(=O)N[C@@H](Cc1cnc[nH]1)C(=O)O | 17.2 µM | – | 16.2 µM | – |
| CCOC(=O)[C@H](C)NC(=O)Cn1c([N+](=O)[O-])cnc1C | 2.18 µM | 69.7 µM | 2.1 µM | 72.2 µM |
| COC(=O)[C@H](Cc1ccccc1)NC(=O)Cn1c([N+](=O)[O-])cnc1C | 44.4 µM | – | 22.1 µM | – |
| Cc1ncc([N+](=O)[O-])n1CCO [METRONIDAZOLE] | 5.17 µM | 869 µM | 4.4 µM | 903 µM |
